Consider one compound from patent US20060166236A1, “Allosteric enzyme coupled immunoassay (AECIA)” (priority 2004, published 2006).

Molecules are shown by their SMILES.

Assay [1] concerns the target T1, rat liver PFK (ATP-dependent fructose-6-phosphate kinase, EC2.7.1.11) (Rattus norvegicus, UniProt P30835).
T1 construct: Fresh livers from rats were homogenized in a homogenizer with 3 volumes of chilled buffer; from tissue; host or cells: rat liver
T1 sequence (P30835 1-780): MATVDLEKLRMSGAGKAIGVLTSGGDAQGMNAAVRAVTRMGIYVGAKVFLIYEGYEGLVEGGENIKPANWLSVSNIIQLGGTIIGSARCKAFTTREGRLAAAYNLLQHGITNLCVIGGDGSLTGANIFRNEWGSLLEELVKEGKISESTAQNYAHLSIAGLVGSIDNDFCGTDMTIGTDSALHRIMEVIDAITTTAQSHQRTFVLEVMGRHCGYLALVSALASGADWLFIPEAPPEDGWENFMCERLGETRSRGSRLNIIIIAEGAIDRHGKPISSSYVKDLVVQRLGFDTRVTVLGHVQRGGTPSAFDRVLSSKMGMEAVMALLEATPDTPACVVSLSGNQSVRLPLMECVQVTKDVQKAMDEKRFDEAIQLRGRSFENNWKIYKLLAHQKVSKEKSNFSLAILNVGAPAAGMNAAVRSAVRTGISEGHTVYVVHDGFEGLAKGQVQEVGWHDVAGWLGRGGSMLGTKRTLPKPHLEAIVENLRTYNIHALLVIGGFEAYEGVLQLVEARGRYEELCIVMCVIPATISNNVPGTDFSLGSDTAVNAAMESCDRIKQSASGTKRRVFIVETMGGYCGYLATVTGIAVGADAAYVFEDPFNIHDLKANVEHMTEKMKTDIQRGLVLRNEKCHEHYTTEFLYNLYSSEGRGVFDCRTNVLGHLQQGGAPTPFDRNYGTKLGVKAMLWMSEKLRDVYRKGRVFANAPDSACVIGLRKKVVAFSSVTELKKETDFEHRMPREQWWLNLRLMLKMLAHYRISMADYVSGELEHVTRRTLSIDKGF
The assay is described as follows: Stimulation assay of rat liver phosphofructokinase by Fructose 2,6 Pi. The assay is classed as biochemical. Particulars: in the presence of 2 mM fructose 6-phosphate and 1 mM AMP; pH 7.1, 22° C.; 3 mM ATP; FIG. 4; read-out: half-maximal effect (activation of rat liver PFK). The method, then: ATP-dependent fructose-6-phosphate kinase (EC2.7.1.11) was purified from rat livers according to the procedures described in Reinhart and Lardy., Biochemistry, 19:1477-1484 (1980). The purification procedure includes a heat step, ammonium sulfate precipitation, and DEAE ion-exchange and gel filtration chromatography as follows:
The assay was performed at pH 7.1 and 22° C. The incubation mixture contained 100 mM KCl, 1 mM NH4Cl, 0.15 mM NADH, 50 mM Hepes buffer, 50 μg/ml aldolase, 10 μg/ml glycerol-3-phosphate dehydrogenase, 1 μg/ml triose phosphate isomerase, 5 mM MgCl2, 1 mM AMP, 2 mM fructose 6-phosphate, and 0.2 mM Pi. The reaction was initiated by adding 3 mM ATP.

The target in assay [2] is T2, potato tuber PPi-PFK (pyrophosphate-dependent fructose-6-phosphate kinase, EC2.7.1.90) (Solanum tuberosum, UniProt P21342+P21343).
T2 construct: Peeled potato tubers (330 g) were homogenized in a blendor; from tissue; host or cells: potato tubers
T2 sequence (P21342 1-616): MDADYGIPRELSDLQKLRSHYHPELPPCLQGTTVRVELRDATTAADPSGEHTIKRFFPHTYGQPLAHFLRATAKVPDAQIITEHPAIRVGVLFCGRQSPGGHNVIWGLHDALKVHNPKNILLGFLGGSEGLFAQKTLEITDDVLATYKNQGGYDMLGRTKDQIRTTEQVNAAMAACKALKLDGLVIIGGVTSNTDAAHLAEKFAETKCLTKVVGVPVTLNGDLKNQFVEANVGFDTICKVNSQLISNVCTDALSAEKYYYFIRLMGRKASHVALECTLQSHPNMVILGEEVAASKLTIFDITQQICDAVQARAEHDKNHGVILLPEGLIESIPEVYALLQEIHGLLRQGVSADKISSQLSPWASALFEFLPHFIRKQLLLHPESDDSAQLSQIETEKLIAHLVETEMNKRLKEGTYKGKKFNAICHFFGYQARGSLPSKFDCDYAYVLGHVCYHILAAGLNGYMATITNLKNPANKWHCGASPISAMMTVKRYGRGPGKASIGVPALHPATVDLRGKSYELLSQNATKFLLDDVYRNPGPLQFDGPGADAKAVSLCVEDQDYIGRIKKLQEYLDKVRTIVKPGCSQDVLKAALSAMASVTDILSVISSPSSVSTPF
T2 sequence (P21343 1-569): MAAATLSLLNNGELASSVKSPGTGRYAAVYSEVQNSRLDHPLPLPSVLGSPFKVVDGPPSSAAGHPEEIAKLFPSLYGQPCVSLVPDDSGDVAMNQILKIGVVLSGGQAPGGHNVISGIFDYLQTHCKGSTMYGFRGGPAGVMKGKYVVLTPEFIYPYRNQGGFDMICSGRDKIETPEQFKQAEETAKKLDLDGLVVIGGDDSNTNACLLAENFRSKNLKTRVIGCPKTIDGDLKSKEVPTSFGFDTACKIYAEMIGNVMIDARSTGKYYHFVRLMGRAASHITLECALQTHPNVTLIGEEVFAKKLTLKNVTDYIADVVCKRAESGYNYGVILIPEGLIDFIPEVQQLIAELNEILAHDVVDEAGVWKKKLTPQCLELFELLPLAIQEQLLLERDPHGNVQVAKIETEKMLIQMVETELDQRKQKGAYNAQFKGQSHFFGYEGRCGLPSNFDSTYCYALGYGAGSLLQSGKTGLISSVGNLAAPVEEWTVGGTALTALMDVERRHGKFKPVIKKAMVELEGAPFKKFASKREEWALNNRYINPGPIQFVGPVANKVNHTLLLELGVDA
The assay is described as follows: Stimulation assay of potato tuber PPi-PFK by Fructose 2,6 Pi. The assay is classed as biochemical. Particulars: in the presence of 1 mM fructose 6-phosphate and 2.5 mM PPi; FIG. 3; read-out: half-maximal effect (activation of potato tuber PPi-PFK). The method, then: Potato tubers PPi-PFK was purified according to the procedure described in Van Schafingen et al., Eur. J. Biochem., 129:191-195 (1982). Peeled potato tubers (330 g) were homogenized in a blendor with 2 volume of ice-cold 20 mM Hepes pH8.2 containing 20 mM potassium acetate and 2 mM dithiothreitol. The homogenate was filtered through cheese cloth. Solid sodium pyrophosphate and 1 mM MgCl2 were added to the filtrate to reach 2 mM and the pH was adjusted to 8.2 at 0° C. The mixture was brought to 59° C. by shaking in a water bath adjusted to 70° C. and maintained for 5 min in a water bath at 59° C.; it was then cooled and brought to pH 7.1 at 0° C. All subsequent steps were carried out at 0-4° C. Six (6) g of poly(ethylene glycol) 6000 were added per 100 ml of solution and after mixing for 15 min, the preparation was allowed to stand for 10 min and then centrifuged for 10 min at 4000×g; 8 g of poly(ethylene glycol) were then added per 100 ml of the resulting supernatant (700 ml) which was mixed and centrifuged as described above. The resulting pellet was dissolved in 40 ml of a solution containing 20 mM Tris, pH8.2, 20 mM KCl, and 2 mM dithiothreitol and applied to a column (25×120 mm) of DEAE-cellulose equilibrated with the same buffer. The column was washed with 100 ml of buffer and developed with a gradient of KCl (20-400 mM) in the same dithiothreitol/Tris buffer. […]

With `O=P(O)(O)OCC1OC(CO)(OP(=O)(O)O)C(O)C1O` (centres unmarked) [fructose 2, 6 Pi, fructose-2,6-bisphosphate], the figures for the EC50 in assay [1] and in assay [2] were ~40 nM and ~5.5 nM, respectively.
